These results are taken from patent US11306092B2, “Amino indole compounds useful as TLR inhibitors” (BRISTOL-MYERS SQUIBB COMPANY, priority 2017, dated 2022).

What all share (format): cell-based
For one assay, the target named is T1, human TLR9 (Homo sapiens, UniProt Q9NR96).
T1 construct: host or cells: HEK-Blue cells
T1 sequence (Q9NR96 26-1032): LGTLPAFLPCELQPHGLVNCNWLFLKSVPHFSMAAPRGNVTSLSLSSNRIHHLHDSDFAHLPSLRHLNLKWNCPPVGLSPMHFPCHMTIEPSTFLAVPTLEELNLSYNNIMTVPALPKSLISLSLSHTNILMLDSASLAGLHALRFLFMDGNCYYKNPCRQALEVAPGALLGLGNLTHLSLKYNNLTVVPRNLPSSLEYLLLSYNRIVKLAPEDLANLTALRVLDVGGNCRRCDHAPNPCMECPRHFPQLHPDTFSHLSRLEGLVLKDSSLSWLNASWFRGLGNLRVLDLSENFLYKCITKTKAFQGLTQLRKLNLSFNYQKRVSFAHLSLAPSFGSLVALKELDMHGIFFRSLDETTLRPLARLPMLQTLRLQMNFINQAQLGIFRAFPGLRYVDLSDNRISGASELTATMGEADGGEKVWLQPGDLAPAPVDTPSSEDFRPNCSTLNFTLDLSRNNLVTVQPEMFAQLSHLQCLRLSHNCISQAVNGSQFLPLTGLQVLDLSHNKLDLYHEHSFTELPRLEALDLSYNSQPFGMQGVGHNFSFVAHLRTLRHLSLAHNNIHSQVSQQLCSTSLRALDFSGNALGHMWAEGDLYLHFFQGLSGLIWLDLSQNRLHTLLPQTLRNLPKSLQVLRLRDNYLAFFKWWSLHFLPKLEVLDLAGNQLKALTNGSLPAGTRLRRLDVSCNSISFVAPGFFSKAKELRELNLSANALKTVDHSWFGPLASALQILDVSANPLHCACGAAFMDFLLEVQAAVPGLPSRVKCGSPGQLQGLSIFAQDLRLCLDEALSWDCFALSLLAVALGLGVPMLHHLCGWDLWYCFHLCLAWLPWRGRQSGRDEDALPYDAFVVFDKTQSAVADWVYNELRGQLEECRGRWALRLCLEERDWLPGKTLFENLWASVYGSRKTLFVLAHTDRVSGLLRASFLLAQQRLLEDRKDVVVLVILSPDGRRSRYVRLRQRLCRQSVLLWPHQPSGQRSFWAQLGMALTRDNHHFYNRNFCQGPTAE
The experiment in a line: TLR9 inhibition reporter assay (HEK-Blue SEAP reporter). Particulars: HEK-Blue cells overexpressing human TLR9; ODN2006 5 nM; 22 hour incubation. In short, it runs like this: (§1)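 Agonists used: gardiquimod 7.5 μM (TLR7), R848 15.9 μM (TLR8), ODN2006 5 nM (TLR9), added after 30 min room-temperature compound pre-treatment (0.05 nM–50 μM) of receptor-overexpressing HEK-Blue cells. SEAP reporter (NF-κB/AP-1 driven) read after 22 h at 37 °C; inhibition scaled between agonist+DMSO and reference-inhibitor wells.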

The target in another assay is T2, human TLR8 (Homo sapiens, UniProt Q9NR97).
T2 construct: host or cells: HEK-Blue cells
T2 sequence (Q9NR97 27-1041): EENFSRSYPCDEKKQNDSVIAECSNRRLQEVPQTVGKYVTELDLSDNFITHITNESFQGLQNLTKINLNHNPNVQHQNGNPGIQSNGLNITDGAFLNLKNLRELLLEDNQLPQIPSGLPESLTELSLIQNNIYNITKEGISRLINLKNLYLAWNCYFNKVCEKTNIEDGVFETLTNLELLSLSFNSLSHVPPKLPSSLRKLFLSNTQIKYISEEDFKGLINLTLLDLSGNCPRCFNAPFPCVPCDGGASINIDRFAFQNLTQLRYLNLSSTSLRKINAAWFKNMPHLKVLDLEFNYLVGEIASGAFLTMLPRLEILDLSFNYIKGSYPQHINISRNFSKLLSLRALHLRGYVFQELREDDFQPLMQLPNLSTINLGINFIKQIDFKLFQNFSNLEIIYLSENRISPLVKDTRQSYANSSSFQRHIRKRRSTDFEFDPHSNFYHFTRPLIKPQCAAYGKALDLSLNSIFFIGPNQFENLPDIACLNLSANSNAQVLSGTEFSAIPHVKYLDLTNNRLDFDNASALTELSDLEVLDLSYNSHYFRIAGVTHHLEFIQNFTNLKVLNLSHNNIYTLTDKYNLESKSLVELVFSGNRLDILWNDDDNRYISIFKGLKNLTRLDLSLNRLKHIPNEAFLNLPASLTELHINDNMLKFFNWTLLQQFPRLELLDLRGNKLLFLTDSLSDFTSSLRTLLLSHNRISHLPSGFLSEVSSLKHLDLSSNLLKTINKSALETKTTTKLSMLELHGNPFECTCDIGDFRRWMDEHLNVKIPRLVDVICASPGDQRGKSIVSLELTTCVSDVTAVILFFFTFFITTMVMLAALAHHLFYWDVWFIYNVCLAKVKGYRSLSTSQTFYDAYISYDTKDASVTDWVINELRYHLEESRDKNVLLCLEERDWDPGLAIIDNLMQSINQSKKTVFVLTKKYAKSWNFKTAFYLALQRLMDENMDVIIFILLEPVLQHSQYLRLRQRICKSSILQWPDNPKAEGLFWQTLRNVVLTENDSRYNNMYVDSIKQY
The experiment in a line: TLR8 inhibition reporter assay (HEK-Blue SEAP reporter). Particulars: HEK-Blue cells overexpressing human TLR8; R848 15.9 μM; 22 hour incubation. The procedure: TLR7/8/9 Inhibition Reporter Assays
HEK-Blue™-cells (Invivogen) overexpressing human TLR7, TLR8 or TLR9 receptors were used for screening inhibitors of these receptors using an inducible SEAP (secreted embryonic alkaline phosphatase) reporter gene under the control of the IFN-β minimal promoter fused to five NF-κB and AP-1-binding sites. Briefly, cells are seeded into Greiner 384 well plates (15000 cells per well for TLR7, 20,000 for TLR8 and 25,000 for TLR9) and then treated with test compounds in DMSO to yield a final dose response concentration range of 0.05 nM-50 μM. After a 30 minute compound pre-treatment at room temperature, the cells are then stimulated with a TLR7 ligand (gardiquimod at a final concentration of 7.5 μM), TLR8 ligand (R848 at a final concentration of 15.9 μM) or TLR9 ligand (ODN2006 at a final concentration of 5 nM) to activate NF-κB and AP-1 which induce the production of SEAP. After a 22 hour incubation at 37° C., 5% CO2, SEAP levels are determined with the addition of HEK-Blue™ Detection reagent (Invivogen), a cell culture medium that allows for detection of SEAP, according to manufacturer's specifications. The percent inhibition is determined as the % reduction in the HEK-Blue signal present in wells treated with agonist plus DMSO alone compared to wells treated with a known inhibitor.

In a further assay the target is T3, human TLR7 (Homo sapiens, UniProt Q9NYK1).
T3 construct: host or cells: HEK-Blue cells
T3 sequence (Q9NYK1 27-1049): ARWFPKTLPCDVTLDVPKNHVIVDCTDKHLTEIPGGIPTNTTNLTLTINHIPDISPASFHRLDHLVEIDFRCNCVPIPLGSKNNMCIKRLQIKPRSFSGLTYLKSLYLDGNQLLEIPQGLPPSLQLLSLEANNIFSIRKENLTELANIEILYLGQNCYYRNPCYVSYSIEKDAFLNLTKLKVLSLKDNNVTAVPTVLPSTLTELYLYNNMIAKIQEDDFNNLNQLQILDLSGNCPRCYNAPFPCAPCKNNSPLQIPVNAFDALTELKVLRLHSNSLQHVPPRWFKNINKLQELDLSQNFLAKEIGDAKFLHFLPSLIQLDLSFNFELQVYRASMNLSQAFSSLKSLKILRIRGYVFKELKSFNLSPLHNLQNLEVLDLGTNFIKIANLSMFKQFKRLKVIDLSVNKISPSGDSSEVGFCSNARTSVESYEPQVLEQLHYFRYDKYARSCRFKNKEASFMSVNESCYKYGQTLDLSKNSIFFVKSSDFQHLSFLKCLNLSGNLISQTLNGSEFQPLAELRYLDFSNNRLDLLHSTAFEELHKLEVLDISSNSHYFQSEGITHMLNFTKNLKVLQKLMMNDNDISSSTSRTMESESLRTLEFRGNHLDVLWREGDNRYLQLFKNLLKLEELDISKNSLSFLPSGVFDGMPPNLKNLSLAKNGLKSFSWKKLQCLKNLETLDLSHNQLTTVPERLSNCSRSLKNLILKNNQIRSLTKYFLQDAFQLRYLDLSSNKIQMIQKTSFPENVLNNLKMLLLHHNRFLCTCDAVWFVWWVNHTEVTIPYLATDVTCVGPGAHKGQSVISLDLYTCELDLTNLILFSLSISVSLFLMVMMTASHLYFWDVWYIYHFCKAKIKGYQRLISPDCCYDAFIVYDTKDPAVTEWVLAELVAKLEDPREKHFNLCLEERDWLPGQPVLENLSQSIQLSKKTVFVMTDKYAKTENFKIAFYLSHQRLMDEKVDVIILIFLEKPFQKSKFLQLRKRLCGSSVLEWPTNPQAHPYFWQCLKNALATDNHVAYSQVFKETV
The experiment in a line: TLR7 inhibition reporter assay (HEK-Blue SEAP reporter). Particulars: HEK-Blue cells overexpressing human TLR7; gardiquimod 7.5 μM; 22 hour incubation. The method in brief: as §1

On to `COc1ccc(-c2[nH]c3ccc(N4CCC(CCN(C)C)CC4)cc3c2C(C)C)cc1OC` [Example 71, 2-(1-(2-(3,4-dimethoxyphenyl)-3-isopropyl-1H-indol-5-yl)piperidin-4-yl)-N,N-dimethylethan-1-amine], for which the IC50 against human TLR9 is 608 nM; against human TLR8, above 50000 nM.
Regarding `CCN1CCC(N2CCN(c3ccc4[nH]c(-c5ccnc6[nH]ccc56)c(C)c4c3)CC2)CC1` [Example 145, 4-(5-(4-(1-ethylpiperidin-4-yl)piperazin-1-yl)-3-methyl-1H-indol-2-yl)-1H-pyrrolo[2,3-b]pyridine], the half-inhibitory concentration (IC50) against human TLR9 worked out at 197 nM; against human TLR7, 2460 nM.
Regarding `CCc1c(-c2ccnc(C)c2)[nH]c2ccc(N3CCN(C4CCN(CC(C)C)CC4)CC3)cc12` [Example 152, 3-ethyl-5-(4-(1-isobutylpiperidin-4-yl)piperazin-1-yl)-2-(2-methylpyridin-4-yl)-1H-indole], the figures for the IC50 against human TLR9 and on human TLR7 were 342 nM and 2220 nM, respectively.
As for `CCN1CCC(N2CCN(c3ccc4[nH]c(-c5ccc(OC)c(OC)c5)c(C)c4c3)CC2)CC1` [Example 155, 2-(3,4-dimethoxyphenyl)-5-(4-(1-ethylpiperidin-4-yl)piperazin-1-yl)-3-methyl-1H-indole], the half-maximal inhibitory concentration (IC50) is 451 nM against human TLR9 and above 50000 nM against human TLR8.
Consider `CC(C)c1c(-c2ccnc3[nH]ncc23)[nH]c2ccc(N3CCN(C4CCN(C(C)C)CC4)CC3)cc12` [Example 167, 4-(3-isopropyl-5-(4-(1-isopropylpiperidin-4-yl)piperazin-1-yl)-1H-indol-2-yl)-1H-pyrazolo[3,4-b]pyridine], for which the IC50 against human TLR9 was 411 nM; on human TLR7 it was 5180 nM.
For `CCc1c(-c2ccc(OC)c(OC)c2)[nH]c2ccc(N3CCCN(CCNC)CC3)cc12` [Example 178, 2-(4-(2-(3,4-dimethoxyphenyl)-3-ethyl-1H-indol-5-yl)-1,4-diazepan-1-yl)-N-methylethan-1-amine], the figures for the IC50 against human TLR9 and at human TLR7 were 2300 nM and 1040 nM, respectively.
In the case of `CCc1c(-c2ccc(OC)c(OC)c2)[nH]c2ccc(N3CCCN(C4CCN(C)CC4)CC3)cc12` [Example 179, 2-(3,4-dimethoxyphenyl)-3-ethyl-5-(4-(1-methylpiperidin-4-yl)-1,4-diazepan-1-yl)-1H-indole], the IC50 amounted to 1100 nM on human TLR9 and 831 nM on human TLR7.
For the compound `CCc1c(-c2ccc(OC)c(OC)c2)[nH]c2ccc(N3CCCN(C4CCN(C(C)C)CC4)CC3)cc12` [Example 180, 2-(3,4-dimethoxyphenyl)-3-ethyl-5-(4-(1-isopropylpiperidin-4-yl)-1,4-diazepan-1-yl)-1H-indole], the IC50 is 652 nM at human TLR9 and 537 nM at human TLR7.
For `CCc1c(-c2ccnc(C)c2)[nH]c2ccc(N3CCC(OC4CCN(C(C)C)CC4)CC3)cc12` [Example 182, 3-ethyl-5-(4-((1-isopropylpiperidin-4-yl)oxy)piperidin-1-yl)-2-(2-methylpyridin-4-yl)-1H-indole], the IC50 against human TLR9 was 658 nM; against human TLR8 it was 47900 nM.
With `CCc1c(-c2ccc(OC)c(OC)c2)[nH]c2ccc(N3CCC(OC4CCN(CC)CC4)CC3)cc12` [Example 188, 2-(3,4-dimethoxyphenyl)-3-ethyl-5-(4-((1-ethylpiperidin-4-yl)oxy)piperidin-1-yl)-1H-indole], the figures for the IC50 at human TLR9 and against human TLR7 were 986 nM and 161 nM, respectively.
In the case of `Cc1c(-c2ccnc3[nH]ccc23)[nH]c2ccc(N3CCC4(CCN(Cc5cccn5C)CC4)CC3)cc12` [Example 189, 3-((1-methyl-1H-pyrrol-2-yl)methyl)-9-(3-methyl-2-(1H-pyrrolo[2,3-b]pyridin-4-yl)-1H-indol-5-yl)-3,9-diazaspiro[5.5]undecane], the IC50 on human TLR9 was found to be 441 nM; against human TLR7, 16100 nM.
With `CCc1c(-c2ccc(OC)c(OC)c2)[nH]c2ccc(N3CCC(OC4CCN(C5CC(C)(C)NC(C)(C)C5)CC4)CC3)cc12` [Example 193, 2-(3,4-dimethoxyphenyl)-3-ethyl-5-(4-((2′,2′,6′,6′-tetramethyl-[1,4′-bipiperidin]-4-yl)oxy)piperidin-1-yl)-1H-indole], the 50% inhibitory concentration (IC50) at human TLR9 came to 546 nM; on human TLR7, 81 nM.
